Measurements as given in PubChem BioAssay (NCI).
Several values for one entry are separate records, joined by “and”; a condition that tells them apart may be missing. Identical values can stand only once.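 Cultured in 96-well plates, cells were exposed to test compound for 48 hours across five concentrations. GI50: concentration for 50% inhibition of growth. The concentration for full growth arrest is given as TGI.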

Tests used:
Test in all cases: NCI-60 cell line screen, 48 h
[1] = tested on: A498 renal
[2] = tested on: A549 NSCLC
[3] = tested on: DU-145 prostate
[4] = tested on: HOP-62 NSCLC
[5] = tested on: HOP-92 NSCLC
[6] = tested on: NCI-H23 lung
[7] = tested on: NCI-H460 lung
[8] = tested on: RPMI-8226 leukemia
[9] = tested on: SK-MEL-2 melanoma
[10] = tested on: SN12C renal
[11] = tested on: U251 CNS
[12] = tested on: HS 578T breast

Structure (SMILES)	TGI [1]	TGI [2]	TGI [3]	TGI [4]	TGI [5]	TGI [6]	TGI [7]	TGI [8]	TGI [9]	TGI [10]	TGI [11]	TGI [12]	GI50 [12]	GI50 [6]	GI50 [7]	GI50 [10]	GI50 [11]
CC[C@@]1(CCC(=O)NCCc2c[nH]c3ccccc23)CCC(=O)N2CCc3c([nH]c4ccccc34)[C@H]21	> 100 µM	> 100 µM	> 100 µM	> 100 µM	> 100 µM	> 100 µM	> 100 µM	9.59 µM	86.4 µM	> 100 µM	> 100 µM	–	–	–	–	–	–
S=C=NC1CCC(c2cc3ccccc3s2)(N2CCCCC2)CC1 (stereo not drawn)	5.1 µM	11.1 µM	4.52 µM	–	3.56 µM	3.85 µM	3.54 µM	–	–	3.77 µM	–	4.73 µM	–	–	–	–	–
O=c1ccnc2ccc3n[nH][nH]c3c12	> 100 µM	> 100 µM	–	> 100 µM	> 100 µM	> 100 µM	> 100 µM	> 100 µM	> 100 µM	> 100 µM	> 100 µM	–	–	–	–	–	–
CCOC(=O)C1(Br)S(=O)(=O)OCCOS1(=O)=O	> 100 µM	> 100 µM	–	> 100 µM	> 100 µM	> 100 µM	> 100 µM	> 100 µM	> 100 µM	> 100 µM	> 100 µM	–	–	–	–	–	–
Cn1c(N=P(c2ccccc2)(c2ccccc2)c2ccccc2)c([N+](=O)[O-])c(=O)n(C)c1=O	> 100 µM	> 100 µM	–	> 100 µM	> 100 µM	> 100 µM	> 100 µM	> 100 µM	> 100 µM	> 100 µM	> 100 µM	> 100 µM	–	–	–	–	–
Cc1c(F)c(NC(=O)CN(C)C)c2c(=O)cc(-c3ccc(NC(=O)CN(C)C)c(F)c3)oc2c1F	3.64 µM	35.6 µM	26.5 µM	32.5 µM	–	36.1 µM	29 µM	38.9 µM	37.1 µM	36.3 µM	27.2 µM	56.5 µM	–	–	–	–	–
COc1cccc(NC(=O)C(=O)C2C=CCS2(=O)=O)c1 (stereo not drawn)	> 100 µM	> 100 µM	–	> 100 µM	–	> 100 µM	> 100 µM	> 100 µM	> 100 µM	> 100 µM	> 100 µM	–	–	–	–	–	–
COC(=O)C1(C)NCCc2c1[nH]c1ccccc21 (stereo not drawn)	> 100 µM	> 100 µM	–	> 100 µM	> 100 µM	> 100 µM	–	> 100 µM	> 100 µM	> 100 µM	> 100 µM	–	–	–	–	–	–
O=C1NC(=S)NC(=O)C1=C/C=C/c1ccc([N+](=O)[O-])cc1	–	50.4 µM	32.7 µM	34.9 µM	29.5 µM	29.6 µM	54.3 µM	> 100 µM	30.9 µM	34.7 µM	19.6 µM	44.6 µM	–	–	–	–	–
CN(CCCn1ccnc1[N+](=O)[O-])CCCn1ccnc1[N+](=O)[O-]	> 100 µM	> 100 µM	> 100 µM	> 100 µM	–	> 100 µM	> 100 µM	> 100 µM	> 100 µM	> 100 µM	> 100 µM	> 100 µM	–	–	–	–	–
COc1ccc(C(=O)/C=C/c2ccc(OCC(=N)N)cc2)cc1	27.9 µM	33.1 µM	25.4 µM	29.9 µM	28.5 µM	43.3 µM	–	–	–	26.7 µM	27.7 µM	34.9 µM	–	–	–	–	–
N#Cc1ccc(C2NN=CC23C(=O)c2ccccc2OC3c2ccccc2)cc1 (stereo not drawn)	> 100 µM	> 100 µM	> 100 µM	> 100 µM	–	> 100 µM	> 100 µM	61.4 µM	> 100 µM	> 100 µM	55.7 µM	> 100 µM	–	–	–	–	–
CCCNC(=O)N(C)C(=O)N1N=C(c2ccccc2)C1c1ccccc1 (stereo not drawn)	> 100 µM	> 100 µM	> 100 µM	> 100 µM	> 100 µM	> 100 µM	–	> 100 µM	> 100 µM	> 100 µM	> 100 µM	–	–	–	–	–	–
COC(=O)C1=C(CCC[C@H](C)O[Si](C)(C)C(C)(C)C)NC(=O)N2[C@@H](CCO)CC[C@H]12	31.1 µM	25.6 µM	44.4 µM	27.7 µM	28.4 µM	27.2 µM	47.4 µM	53.6 µM	–	29.2 µM	29.6 µM	–	–	–	–	–	–
COc1cc2c[n+](C)c3c4cc(OC)c(OC)cc4ccc3c2cc1OC	> 100 µM	> 100 µM	> 100 µM	> 100 µM	–	> 100 µM and 77 µM	> 100 µM	> 100 µM	> 100 µM	> 100 µM	> 100 µM	> 100 µM	> 100 µM and 10.3 µM	40.8 µM and 19.5 µM	> 100 µM and 49.8 µM	30.4 µM and 3.98 µM	14.3 µM and 7.05 µM
CN(C(=O)c1ccc(OCCCC(=O)O)c(Cl)c1Cl)C1CCCC1	> 100 µM	> 100 µM	–	> 100 µM	> 100 µM	> 100 µM	> 100 µM	> 100 µM	> 100 µM	> 100 µM	> 100 µM	–	–	–	–	–	–
[N-]=[N+]=CC(=O)CCC(=O)N(c1ccccc1)c1ccccc1	> 10 µM	> 10 µM	> 10 µM	> 10 µM	> 10 µM	> 10 µM	> 10 µM	–	> 10 µM	> 10 µM	> 10 µM	–	–	–	–	–	–
CC[C@H](C)[C@H](NC(=O)[C@@]1(O)[C@H](O)[C@]2(CC)C=CCN3CC[C@@]4(c5cc(Br)c(OC)cc5N(C)[C@@H]14)[C@@H]32)C(=O)OC	> 100 µM	> 100 µM	> 100 µM	> 100 µM	–	> 100 µM	> 100 µM	34.9 µM	> 100 µM	> 100 µM	> 100 µM	77.1 µM	–	–	–	–	–
CNC(=O)NS(=O)(=O)c1ccc(C)cc1	–	> 100 µM	> 100 µM	> 100 µM	> 100 µM	> 100 µM	> 100 µM	> 100 µM	> 100 µM	> 100 µM	> 100 µM	> 100 µM	–	–	–	–	–
N#Cc1c(N2CCN(c3ccc([N+](=O)[O-])cc3)CC2)[n+](=O)c2ccccc2n1[O-]	–	> 100 µM	> 100 µM	> 100 µM	–	> 100 µM	> 100 µM	> 100 µM	> 100 µM	> 100 µM	> 100 µM	–	–	–	–	–	–
